These results are taken from article PMC6934184, “Selective DNA-PKcs inhibition extends the therapeutic index of localized radiotherapy and chemotherapy” (The Journal of Clinical Investigation, 2019).

The target of the assay is T1, CDK5/p25 (Homo sapiens, UniProt Q00535).
T1 construct: purchased Thermo Fisher Scientific (Life Technologies) SelectScreen
Nature of the assay: SelectScreen Z'LYTE. In kind it is biochemical. The method in brief:
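SelectScreen broad panel; activity (Z'LYTE, Adapta) plus binding formats. ATP: Km app for CSF1R Z'LYTE; 10 for CAMK1 Adapta. Readout = % per kinase.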

T1 sequence (Q00535 whole entry): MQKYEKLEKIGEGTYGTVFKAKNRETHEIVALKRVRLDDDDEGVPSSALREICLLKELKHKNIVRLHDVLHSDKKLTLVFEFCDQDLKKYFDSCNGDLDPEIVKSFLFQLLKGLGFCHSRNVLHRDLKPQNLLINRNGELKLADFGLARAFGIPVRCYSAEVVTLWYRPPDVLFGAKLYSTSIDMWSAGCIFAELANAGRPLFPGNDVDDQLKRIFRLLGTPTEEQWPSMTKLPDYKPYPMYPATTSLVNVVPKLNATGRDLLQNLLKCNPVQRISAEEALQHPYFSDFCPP
T1 sequence (Q15078 99-307 partner limits assumed): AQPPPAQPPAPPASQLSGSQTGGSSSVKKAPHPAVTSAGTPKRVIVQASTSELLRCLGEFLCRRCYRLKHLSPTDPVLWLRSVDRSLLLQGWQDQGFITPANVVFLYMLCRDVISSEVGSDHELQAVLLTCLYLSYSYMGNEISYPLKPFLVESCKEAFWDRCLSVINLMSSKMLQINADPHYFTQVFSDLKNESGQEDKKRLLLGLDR

Regarding `CN(C(=O)CN1CCOCC1)c1ccc2sc3c(-c4cccc5c(=O)cc(N6CC7CCC(C6)O7)oc45)cccc3c2c1` [NU5455], the inhibition (as a rule, the relative decrease from the control value, in per cent) at 1 µM was -1.1%.
